Experimental data from US9181230B2, “Morpholine compounds and uses thereof” (Hoffmann-La Roche Inc., priority 2013, dated 2015).
Where a name gives a salt, the structure may show the parent alone.

Key:
rat TAAR1 = rat TAAR1 (Rattus norvegicus (Rat), UniProt Q923Y9); assay: Radioligand binding assay on rat TAAR1; details: for Ki: rat TAAR1, membranes of HEK-293 cells, second value of the cell pair mouse/rat
Experimental: (§1) For the construction of expression plasmids the coding sequences of human, rat and mouse TAAR 1 were amplified from genomic DNA essentially as described by Lindemann et al.. The Expand High Fidelity PCR System (Roche Diagnostics) was used with 1.5 mM Mg^2+ and purified PCR products were cloned into pCR2.1-TOPO cloning vector (Invitrogen) following the instructions of the manufacturer. PCR products were subcloned into the pIRESneo2 vector (BD Clontech, Palo Alto, Calif.), and expression vectors were sequence verified before introduction in cell lines.
(§2) HEK293 cells (ATCC # CRL-1573) were cultured essentially as described by Lindemann et al. (2005). For the generation of stably transfected cell lines HEK293 cells were transfected with the pIRESneo2 expression plasmids containing the TAAR coding sequences (described above) with Lipofectamine 2000 (Invitrogen) according to the instructions of the manufacturer, and 24 hrs post transfection the culture medium was supplemented with 1 mg/ml G418 (Sigma, Buchs, Switzerland). After a culture period of about 10 d clones were isolated, expanded and tested for responsiveness to trace amines (all compounds purchased from Sigma) with the cAMP Biotrak Enzyme immunoassay (EIA) System (Amersham) following the non-acetylation EIA procedure provided by the manufacturer.
(B) Radioligand Binding Assay on Rat TAAR1
(§3) Membrane Preparation and Radioligand Binding.
(§4) HEK-293 cells stably expressing rat TAAR1 were maintained at 37° C. and 5% CO2 in DMEM high glucose medium, containing fetal calf serum (10%, heat inactivated for 30 min at 56° C.), penicillin/streptomycin (1%), and 375 μg/ml geneticin (Gibco). Cells were released from culture flasks using trypsin/EDTA, harvested, washed twice with ice-cold PBS (without Ca^2+ and Mg^2+), pelleted at 1,000 rpm for 5 min at 4° C., frozen and stored at −80° C. Frozen pellets were suspended in 20 ml HEPES-NaOH (20 mM, pH 7.4) containing 10 mM EDTA and homogenized with a Polytron (PT 6000, Kinematica) at 14,000 rpm for 20 s. The homogenate was centrifuged at 48,000×g for 30 min at 4° C. Subsequently, the supernatant was removed and discarded, and the pellet resuspended in 20 ml HEPES-NaOH (20 mM, pH 7.4) containing 0.1 mM EDTA using the Polytron (20 s at 14,000 rpm). This procedure was repeated and the final pellet resuspended in HEPES-NaOH containing 0.1 mM EDTA and homogenized using the Polytron. Typically, aliquots of 2 ml membrane portions were stored at −80° C. With each new membrane batch the dissociation constant (Kd) was determined via a saturation curve. […] Nonspecific binding was defined as the amount of ^3[H]-(S)-4-[(ethyl-phenyl-amino)-methyl]-4,5-dihydro-oxazol-2-ylamine bound in the presence of 10 μM unlabeled ligand. All compounds were tested at a broad range of concentrations (10 pM to 10 μM) in duplicates. […] The 96 deep well plates were incubated for 1 hr at 4° C. Incubations were terminated by rapid filtration through Unifilter-96 plates (Packard Instrument Company) and glass filters GF/C (Perkin Elmer) presoaked for 1 hr in polyethylenimine (0.3%) and washed 3 times with 1 ml of cold binding buffer. After addition of 45 μl of Microscint 40 (PerkinElmer) the Unifilter-96 plate was sealed and after 1 hr the ratioactivity counted using a TopCount Microplate Scintillation Counter (Packard Instrument Company).

mouse TAAR1 = mouse TAAR1 (Mus musculus (Mouse), UniProt Q923Y8); assay: Radioligand binding assay on mouse TAAR1; details: for Ki: mouse TAAR1, membranes of HEK-293 cells, first value of the cell pair mouse/rat
Experimental: as §1, §2
(A) Radioligand Binding Assay on Mouse TAAR1
as §3
as §4, with “expressing mouse” for “expressing rat”

Chain of mouse TAAR1 (Q923Y8 whole entry): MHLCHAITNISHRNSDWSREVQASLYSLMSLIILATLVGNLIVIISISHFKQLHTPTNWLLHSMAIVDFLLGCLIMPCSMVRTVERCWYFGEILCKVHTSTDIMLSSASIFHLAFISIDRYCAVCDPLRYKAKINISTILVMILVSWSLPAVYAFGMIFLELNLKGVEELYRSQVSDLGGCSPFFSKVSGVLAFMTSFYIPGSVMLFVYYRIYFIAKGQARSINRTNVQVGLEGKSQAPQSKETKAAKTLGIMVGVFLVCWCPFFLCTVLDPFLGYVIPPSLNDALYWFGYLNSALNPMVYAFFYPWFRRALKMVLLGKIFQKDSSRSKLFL
Chain of rat TAAR1 (Q923Y9 whole entry): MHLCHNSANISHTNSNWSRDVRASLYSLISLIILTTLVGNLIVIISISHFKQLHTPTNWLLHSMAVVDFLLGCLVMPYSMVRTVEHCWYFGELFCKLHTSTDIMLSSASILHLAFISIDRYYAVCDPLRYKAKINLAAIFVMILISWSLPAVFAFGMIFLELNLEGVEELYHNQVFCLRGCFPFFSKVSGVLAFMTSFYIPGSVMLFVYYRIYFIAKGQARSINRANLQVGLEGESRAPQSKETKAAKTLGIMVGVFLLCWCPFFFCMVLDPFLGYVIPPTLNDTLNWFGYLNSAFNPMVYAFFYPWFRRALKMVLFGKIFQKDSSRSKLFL

Row | Compound | Ki (rat TAAR1) [µM] | Ki (mouse TAAR1) [µM] | other results
1 | c1cc([C@H]2CNCCO2)ccc1-c1cc(C2CCOCC2)[nH]n1 [Example 24, (S)-2-(4-(5-(Tetrahydro-2H-pyran-4-yl)-1H-pyrazol-3-yl)phenyl)morpholine hydrochloride] | 0.0722 | > 20 | 
2 | Fc1ccc(-c2nc(-c3ccc([C@@H]4CNCCO4)cc3)n[nH]2)cc1 [Example 23, (R)-2-(4-(5-(4-Fluorophenyl)-1H-1,2,4-triazol-3-yl)phenyl)morpholine hydrochloride] | 0.0196 | 0.0015 | 
3 | Clc1ccc(-c2cc(-c3ccc(C4CNCCO4)cc3)n[nH]2)cn1 (stereo not drawn) [Example 5, 2-(4-(5-(6-Chloropyridin-3-yl)-1H-pyrazol-3-yl)phenyl)morpholine hydrochloride] | 0.0631 | 0.0044 | 
4 | Fc1ccc(-c2cc(-c3ccc([C@@H]4CNCCO4)cc3)n[nH]2)cc1 [Example 31, (R)-2-(4-(5-(4-Fluorophenyl)-1H-pyrazol-3-yl)phenyl)morpholine hydrochloride] | 0.0036 | 0.001 | 
5 | c1ccc2[nH]c(-c3ccc(C4CNCCO4)cc3)nc2c1 (stereo not drawn) [Example 1, 2-(4-(1H-Benzo[d]imidazol-2-yl)phenyl)morpholine hydrochloride] | 0.76 | 0.038 | 
6 | Clc1ccc(-c2cc(-c3ccc(C4CNCCO4)cc3)n[nH]2)cc1 (stereo not drawn) [Example 3, 2-(4-(5-(4-Chlorophenyl)-1H-pyrazol-3-yl)phenyl)morpholine hydrochloride] | 0.0034 | 0.001 | 
7 | CCN(C[C@H]1COC(N)=N1)c1ccccc1 [^3[H]-(S)-4-[(ethyl-phenyl-amino)-methyl]-4,5-dihydro-oxazol-2-ylamine, reference compound] |  |  | Kd (rat TAAR1; rat TAAR1, saturation curve, usual value per membrane batch, read-out: dissociation constant (Kd) of the radioligand): ~2.3 nM; Kd (mouse TAAR1; mouse TAAR1, saturation curve, usual value per membrane batch, read-out: dissociation constant (Kd) of the radioligand): ~0.7 nM
8 | Fc1ccc([C@@H]2COC(c3ccc([C@H]4CNCCO4)cc3)=N2)cc1 [Example 22, (S)-2-{4-[(R)-4-(4-Fluoro-phenyl)-4,5-dihydro-oxazol-2-yl]-phenyl}-morpholine] | 1.51 | 0.0318 | 
9 | FC(F)(F)c1ccc(-c2nc3ccc([C@@H]4CNCCO4)cc3o2)cn1 [Example 53, (R)-6-(Morpholin-2-yl)-2-(6-(trifluoromethyl)pyridin-3-yl)benzo[d]oxazole hydrochloride] | 0.226 | 0.0463 | 
10 | Fc1ccc(-c2nnc(-c3ccc([C@@H]4CNCCO4)cc3)o2)cc1 [Example 34, (R)-2-(4-(5-(4-Fluorophenyl)-1,3,4-oxadiazol-2-yl)phenyl)morpholine hydrochloride] | 0.156 | 0.004 | 
11 | Fc1ccc(-c2nnc(-c3ccc([C@H]4CNCCO4)cc3)o2)cc1 [Example 17, (S)-2-(4-(5-(4-Fluorophenyl)-1,3,4-oxadiazol-2-yl)phenyl)morpholine hydrochloride] | 0.229 | 0.0032 | 
12 | Clc1cccc(-c2cc(-c3ccc([C@H]4CNCCO4)cc3)n[nH]2)c1 [Example 9, (S)-2-(4-(5-(3-Chlorophenyl)-1H-pyrazol-3-yl)phenyl)morpholine hydrochloride] | 0.0021 | 0.0004 | 
13 | N#Cc1cccc(-c2cc(-c3ccc(C4CNCCO4)cc3)n[nH]2)c1 (stereo not drawn) [Example 12, 3-[5-(4-Morpholin-2-yl-phenyl)-2H-pyrazol-3-yl]-benzonitrile hydrochloride] | 0.0615 | 0.0005 | 
14 | Fc1ccc(-n2cc(-c3ccc([C@@H]4CNCCO4)cc3)cn2)cc1 [Example 26, (R)-2-(4-(1-(4-Fluorophenyl)-1H-pyrazol-4-yl)phenyl)morpholine hydrochloride] | 0.0122 | 0.0006 | 
15 | Fc1ccc(-c2nc(-c3ccc([C@H]4CNCCO4)cc3)n[nH]2)cc1 [Example 20, (S)-2-(4-(5-(4-Fluorophenyl)-1H-1,2,4-triazol-3-yl)phenyl)morpholine hydrochloride] | 0.0779 | 0.0012 | 
16 | O=C(Nc1n[nH]c2cc(C3CNCCO3)ccc12)c1ccc(F)cc1 (stereo not drawn) [Example 21, 4-Fluoro-N-(6-(morpholin-2-yl)-1H-indazol-3-yl)benzamide hydrochloride] | 0.895 | 0.0617 | 
17 | FC(F)(F)c1cnc2[nH]c3ccc([C@@H]4CNCCO4)cc3c2c1 [Example 48, (R)-2-(3-(Trifluoromethyl)-9H-pyrido[2,3-b]indol-6-yl)morpholine hydrochloride] |  |  | Ki (rat TAAR1; hydrochloride): 0.0639 µM; Ki (mouse TAAR1; hydrochloride): 0.0081 µM
18 | FC(F)(F)c1cnc2[nH]c3ccc([C@@H]4CNCCO4)cc3c2c1 [Example 50, (R)-2-(3-(Trifluoromethyl)-9H-pyrido[2,3-b]indol-6-yl)morpholine hydrochloride] |  |  | Ki (rat TAAR1; hydrochloride): 0.0303 µM; Ki (mouse TAAR1; hydrochloride): 0.0082 µM
19 | Fc1ccc(-c2cc(-c3ccc(C4CNCCO4)cc3)n[nH]2)cc1 (stereo not drawn) [Example 4, 2-(4-(5-(4-Fluorophenyl)-1H-pyrazol-3-yl)phenyl)morpholine hydrochloride] | 0.0059 | 0.0012 | 
20 | N#Cc1ccc(-c2cc(-c3ccc(C4CNCCO4)cc3)n[nH]2)cc1 (stereo not drawn) [Example 6, 4-(3-(4-(Morpholin-2-yl)phenyl)-1H-pyrazol-5-yl)benzonitrile hydrochloride] | 0.0335 | 0.0019 | 
21 | N#Cc1ccc(-c2cc(-c3ccc([C@@H]4CNCCO4)cc3)n[nH]2)cc1 [Example 32, (R)-4-(3-(4-(Morpholin-2-yl)phenyl)-1H-pyrazol-5-yl)benzonitrile hydrochloride] | 0.0154 | 0.0019 | 
22 | Fc1ccc(-n2cc(-c3ccc([C@H]4CNCCO4)cc3)cn2)cc1 [Example 19, (S)-2-(4-(1-(4-Fluorophenyl)-1H-pyrazol-4-yl)phenyl)morpholine hydrochloride] | 0.0669 | 0.0015 | 
23 | Fc1ccc(-c2cc(-c3ccc([C@H]4CNCCO4)cc3F)n[nH]2)cc1 [Example 40, (S)-2-(3-Fluoro-4-(5-(4-fluorophenyl)-1H-pyrazol-3-yl)phenyl)morpholine hydrochloride] | 0.0155 | 0.0012 | 
24 | Clc1ccc(-c2cc(-c3ccc([C@H]4CNCCO4)cc3)n[nH]2)cn1 [Example 37, (S)-2-{4-[5-(6-Chloro-pyridin-3-yl)-1H-pyrazol-3-yl]-phenyl}-morpholine hydrochloride] | 0.304 | 0.004 | 
